Experiments:
[1] = molecular target: T1, Testicular bovine hyaluronidase (Bos taurus, UniProt Q2YDK3); test: Hyaluronidase inhibition in vitro (chondroitin sulfate agar plate); assay type: biochemical
T1 construct: Testicular bovine hyaluronidase (Sigma Chemical Company); purchased Sigma Chemical Company; host or cells: bovine testes
T1 sequence (Q2YDK3 36-553): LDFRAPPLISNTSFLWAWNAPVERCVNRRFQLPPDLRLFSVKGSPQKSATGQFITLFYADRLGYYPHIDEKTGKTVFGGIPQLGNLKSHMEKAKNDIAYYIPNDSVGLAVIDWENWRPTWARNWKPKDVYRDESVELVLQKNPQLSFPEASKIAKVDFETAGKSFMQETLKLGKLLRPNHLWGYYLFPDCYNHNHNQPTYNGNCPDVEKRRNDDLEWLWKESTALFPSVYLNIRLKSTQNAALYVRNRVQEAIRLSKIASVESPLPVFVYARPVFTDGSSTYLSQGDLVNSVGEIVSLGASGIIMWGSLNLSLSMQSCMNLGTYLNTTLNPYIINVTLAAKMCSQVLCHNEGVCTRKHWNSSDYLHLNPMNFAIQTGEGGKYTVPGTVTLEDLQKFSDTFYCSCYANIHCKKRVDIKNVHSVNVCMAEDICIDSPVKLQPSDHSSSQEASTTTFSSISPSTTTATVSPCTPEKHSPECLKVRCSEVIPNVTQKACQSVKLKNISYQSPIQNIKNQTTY
Procedure: The inhibition of hyaluronidase was assessed using chondroitin sulfate as the enzyme substrate according to the following procedure. Agar plates containing chondroitin sulfate (0.1 percent) were prepared by the following method: water solutions of I percent agarose, 2 M sodium chloride (0.1 vol.), 1 M sodium acetate (pH 5.0, 0.1 vol), and sodium azide (0.5 mg/ml, 0.1 vol.) qe mixed and the mixture is brought to the boiling temperature. After cooling to about 65° C., a solution of chondroitin sulfate (10 mgtml, 0.1 vol.) is added. After cooling to about 45° C., the resulting mixture (20 ml) is poured onto a petri dish. The plates are allowed to cool to room temperature. A well 2 mm in diameter is then cut in the agar surface. […] A control using only the buffer solution without added test compound is also run. The plates are then incubated overnight (about 16 hours) at 37° C. The zones of hydrolysis of chondroitin sulfate by hyaluronidase are visualized by flooding the plate with 10 percent cetyl trimethyl ammonium bromide. The area of the zone is logarithmically proportional to the concentration of hyaluronidase. Inhibitor activity is determined by comparing the area of hydrolysis from the test compound to the area of hydrolysis from the control. The results are expressed as percent inhibition calculated as follows: [formula]

[2] = molecular target: T2, Acrosin (purified from boar sperm) (Sus scrofa, UniProt P08001); test: Acrosin inhibition in vitro (BAPNA substrate); assay type: biochemical; details: for Inhibition (units/mg): Other salts ROSO3M, Conc. of Test Sol. 10 mg/ml
T2 construct: Acrosin (200 μl, purified from boar sperm); from tissue; host or cells: boar sperm
T2 sequence (P08001 17-415): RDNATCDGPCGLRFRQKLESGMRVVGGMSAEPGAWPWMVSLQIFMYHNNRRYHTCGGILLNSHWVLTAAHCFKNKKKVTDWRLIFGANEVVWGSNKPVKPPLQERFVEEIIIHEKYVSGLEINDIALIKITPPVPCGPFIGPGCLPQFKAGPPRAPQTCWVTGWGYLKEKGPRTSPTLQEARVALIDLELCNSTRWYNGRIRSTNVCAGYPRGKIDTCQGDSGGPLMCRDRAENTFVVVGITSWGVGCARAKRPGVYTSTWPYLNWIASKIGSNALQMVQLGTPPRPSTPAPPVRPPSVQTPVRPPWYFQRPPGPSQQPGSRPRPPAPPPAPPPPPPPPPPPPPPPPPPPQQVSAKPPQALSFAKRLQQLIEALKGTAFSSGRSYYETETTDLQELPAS
Procedure: The inhibition of acrosin is assessed in vitro using benzoyl arginine p-nitroanilide (BAPNA) as the enzyme substrate according to the following procedure. Acrosin (200 μl, purified from boar sperm) and a solution of the test compound (200 μl, 10 mg/ml., or 50 μl, 1 mg/ml) in 0.05 M triethanolamine buffer, pH 7.8, are incubated at room temperature for 5 minutes. A control using the buffer solution without the test compound added is also run. A 200 μl-sample of the incubation mixture is then withdrawn and is added to a cuvettecontaining BAPNA (1 ml) and triethanolamine buffer (2 ml). The mixture is stirred and placed in a Gilford recording spectrophotometer. The increase in optical density at 383 mn is measured. One unit of acrosin activity is defined as the amount of acrosin which will cause an increase in optical density at 383 mn of 0.001/minute. One unit of inhibitory activity is defined as the amount of inhibitor which will cause a reduction in the increase in optical density at 383 nm of 0.001/minute.

[3] = system: Dutch Belted male rabbits of proven fertility; test: Antifertility effects in vivo, oral dosing of male rabbits; parameters: species or system rabbit; details: administered to male rabbits, procedures of Example 4
Procedure: The animals (of proven fertility) are then bred and the genital system of the females is examined to determine the number of embryos.
Dutch Belted male rabbits of proven fertility were randomly selected. They were given 10 mg/kg tetradecyl sodium sulfate suspended in Ca++ free Ringer's solution by gavage. Control animals were given Ca++ free Ringer's solution by gavage. The male rabbits were dosed each day for 3 days and they were bred to females 2 hours after dosing and again 8 hours after dosing. The female rabbits were then given 100 IU human chorionic gonadotrophin (HCG) to stimulate ovulation. Twenty four hours after the last dose of tetradecyl sodium sulfate the male rabbits were bred and the females treated as before. After twelve days the female rabbits were sacrificed and examined for embryos.

[4] = Other salts ROSO3M, Conc. of Test Sol. 10 (mg/ul)
[5] = Conc. of Test Solution 10 Mg/ml

Compound: CCCCCCCCCCC(CCCCCCCC)COS(=O)(=O)O (stereo not shown) [2-octyldodecyl]
- % Inhibition ([1]; Conc. of Test Solution 1 Mg/ml): 0%

Compound: CC(C)CCCC(C)CCCC(C)CCOS(=O)(=O)[O-].[Na+] (stereo not shown) [3,7,11-trimethyldodecyl]
- % Inhibition ([1]; Conc. of Test Solution 1 Mg/ml): 39%

Compound: CC(C)CCCCCCCCCCCOS(=O)(=O)O [12-methyltridecyl]
- % Inhibition ([1]; Conc. of Test Solution 1 Mg/ml): 7%

Compound: CCCCCCCCCCCCOS(=O)(=O)O.OCCNCCO [CH3(CH2)11— diethanol-ammonium]
- Inhibition (units/mg) [2]: 90,000 units/mg
- % Inhibition [1, 4]: 100%

Compound: CCCCCCCCCCCCOS(=O)(=O)O.OCCN(CCO)CCO [CH3(CH2)11— triethanol-ammonium]
- Inhibition (units/mg) [2]: 90,000 units/mg
- % Inhibition [1, 4]: 100%

Compound: CCCCCCCCCCCCC(C)OS(=O)(=O)O (stereo not shown) [Compound 2-tetradecyl]
- % Inhibition ([1]; Conc. of Test Solution 1 Mg/ml): 100%

Compound: CCCCCCCCCCC(CCC)OS(=O)(=O)[O-].[Na+] (stereo not shown) [Compound 4-tetradecyl]
- % Inhibition ([1]; Conc. of Test Solution 1 Mg/ml): 0%

Compound: CCCCCCCCC(CCCCC)OS(=O)(=O)O (stereo not shown) [Compound 6-tetradecyl]
- % Inhibition ([1]; Conc. of Test Solution 1 Mg/ml): 12%

Compound: CCCCCCCCCC(CCCCCC)OS(=O)(=O)O (stereo not shown) [Compound 7-hexadecyl]
- % Inhibition ([1]; Conc. of Test Solution 1 Mg/ml): 0%

Compound: CCCCCCCC(CCCCCC)OS(=O)(=O)O (stereo not shown) [Compound 7-tetradecyl]
- % Inhibition ([1]; Conc. of Test Solution 1 Mg/ml): 0%

Compound: CCCCCCCCC(CCCCCCC)OS(=O)(=O)O (stereo not shown) [Compound 8-hexadecyl]
- % Inhibition ([1]; Conc. of Test Solution 1 Mg/ml): 0%

Compound: CCCCCCCCCC(CCCCCCCC)OS(=O)(=O)O (stereo not shown) [Compound 9-octadecyl]
- % Inhibition ([1]; Conc. of Test Solution 1 Mg/ml): 7%

Compound: O=S(=O)([O-])Oc1ccc(OS(=O)(=O)[O-])c2ccccc12.[Na+].[Na+] [Compound 28]
- acrosin inhibition activity (in words) [2]: The following compounds have also been found to have acrosin inhibition

Compound: O=S(=O)([O-])Oc1c[nH]c2ccccc12.[Na+] [Compound 29]
- acrosin inhibition activity (in words) [2]: The following compounds have also been found to have acrosin inhibition

Compound: CCCCC/C=C\C/C=C\CCCCCCCCOS(=O)(=O)O [linoleyl]
- % Inhibition ([1]; Conc. of Test Solution 1 Mg/ml): 0%

Compound: CCCC/C=C/CCCCCCCCOS(=O)(=O)[O-].[Na+] [myristeladyl]
- % Inhibition ([1]; Conc. of Test Solution 1 Mg/ml): 13%

Compound: CCCC/C=C\CCCCCCCCOS(=O)(=O)O [myristoleyl]
- % Inhibition ([1]; Conc. of Test Solution 1 Mg/ml): 13%

Compound: CCCCCCCCCCCCCCCCCCCCCCOS(=O)(=O)O [n-docosyl]
- % Inhibition ([1]; Conc. of Test Solution 1 Mg/ml): 0%

Compound: CCCCCCCCCCCCOS(=O)(=O)[O-].[Na+] [n-dodecyl]
- Inhibition (units/mg.) [2, 5]: 0 units/mg.
- % Inhibition [1, 5]: 71%

Compound: CCCCCCCCCCCCCCCCCCCCOS(=O)(=O)O [n-eicosyl]
- % Inhibition [1, 5]: 0%

Compound: CCCCCCCCCCCOS(=O)(=O)O [n-hendecyl]
- % Inhibition [1, 5]: 100%

Compound: CCCCCCCCCCCCCCCCCCCCCCCCCCCOS(=O)(=O)O [n-heptacosyl]
- % Inhibition ([1]; Conc. of Test Solution 1 Mg/ml): 0%

Compound: CCCCCCCCCCCCCCCCCOS(=O)(=O)O [n-heptadecyl]
- % Inhibition [1, 5]: 23%

Compound: CCCCCCCCCCCCCCCCOS(=O)(=O)O [n-hexadecyl]
- % Inhibition [1, 5]: 75%

Compound: CCCCCCCCCCCCCCCCCCOS(=O)(=O)O [n-octadecyl]
- % Inhibition [1, 5]: 30%

Compound: CCCCCCCCCCCCCCCOS(=O)(=O)O [n-pentadecyl]
- % Inhibition [1, 5]: 60%

Compound: CCCCCCCCCCCCCCCCCCCCCCCCOS(=O)(=O)O [n-tetracosyl]
- % Inhibition ([1]; Conc. of Test Solution 1 Mg/ml): 0%

Compound: CCCCCCCCCCCCCOS(=O)(=O)O [n-tridecyl]
- % Inhibition [1, 5]: 80%

Compound: CCCCCCCC/C=C\CCCCCCCCOS(=O)(=O)O [oleyl]
- % Inhibition ([1]; Conc. of Test Solution 1 Mg/ml): 0%

Compound: CC(C)CCCC(C)CCOS(=O)(=O)O (stereo not shown) [tetrahydrogeranyl]
- % Inhibition ([1]; Conc. of Test Solution 1 Mg/ml): 0%

Compound: a ethyl a sulfodocosanoate [Compound 31]
- activity as male contraceptives [3]: activity as male contraceptives
